This assay has as its target HIV-1 protease (Human immunodeficiency virus type 1 group M subtype B, UniProt P04585). Briefly: biochemical. The following applies: for IC50: HIV-1 Protease IC50; for inhibition at 1 µM: read-out: HIV-1 Protease % Inhib, dose 1.000 uM; for inhibition at 100 µM: read-out: HIV-1 Protease % Inhib, dose 100.000 uM; for inhibition at 0.123 µM: read-out: HIV-1 Protease % Inhib, dose 0.123 uM; for inhibition at 0.37 µM: read-out: HIV-1 Protease % Inhib, dose 0.370 uM. The method, then: The HIV protease screening assay is based on fluorescently labeled substrate which can be resolved from nonlabeled cleavage product using special beads coated with streptavidin. The substrate is biotinylated at the amino terminal arginine and fluorescently labeled with fluorescein isothiocynate (FITC) at the carboxyl terminal lysine. This assay has been employed to detect novel, nonpeptidic inhibitors of HIV-1 protease. Substrate (20 μl of 0.2 μM), sample (10 μl of desired concentration), and enzyme (10 μl of 0.1 μM) are added to a 96 well pandex plate. The assay is run in 0.1M sodium acetate buffer at pH 5.5 in the presence of 1.0M sodium chloride and 0.05% NP-40 with incubated in the dark for one hour at room temperature. Strepavidin coated polystyrene beads {40 μl of 0.1% (w/v)} are added and the plate is incubated in the dark for an additional half hour. The labeled cleavage product is separated from the unreacted substrate via filtration and is read on the Idexx screen machine. The data are analyzed by appropriate computer algorithms to ascertain percent inhibition values.

Where [1] appears, read: dose 10.000 uM, read-out: HIV-1 Protease % Inhib.
Setting [2] is: dose 30.000 uM, read-out: HIV-1 Protease % Inhib.
[3] abbreviates: read-out: HIV-1 Protease % Inhib, dose 10.000 uM.
[4] abbreviates: dose 1.100 uM, read-out: HIV-1 Protease % Inhib.
Where [5] appears, read: dose 3.300 uM, read-out: HIV-1 Protease % Inhib.
Setting [6] is: read-out: HIV-1 Protease % Inhib, dose 1.100 uM.
[7] abbreviates: read-out: HIV-1 Protease % Inhib, dose 3.300 uM.
[8] abbreviates: read-out: HIV-1 Protease % Inhib, dose 30.000 uM.

Several values for one entry are separate records, joined by “and”; a condition that tells them apart may be missing. Identical values can stand only once. Counter-ions that a name gives are not always drawn. Like-named read-outs stand apart in the source and are kept apart here.

For `O=c1oc2c(c(O)c1C(c1cccc(N3CCCS3(=O)=O)c1)C1CC1)CCCCCC2` [Example 365B (First Title Compound), 2H-Cycloocta[b]pyran-2-one, 3-[cyclopropyl[3-(2-isothiazolidinyl)phenyl]methyl]-5,6,7,8,9,10-hexahydro-4-hydroxy-,S,S-dioxide], under setting [1], the inhibition at 10 µM was 83.8%. For the same compound, the inhibition at 30 µM under setting [2] was 78.8%.

Usually IC50 stands for the concentration that gives 50% inhibition. A high value points to weaker potency. `CCCC(c1ccccc1)c1c(O)c2ccc(OC)cc2oc1=O` (stereo not drawn) [Example 37, Coumarin, 7-methoxy-3-(α-propylbenzyl)4-hydroxy-]: the half-inhibitory concentration (IC50) was found to be 7000 nM, the inhibition at 1 µM was under 10% and the inhibition at 100 µM was found to be 103%. Besides, the inhibition at 10 µM under setting [3] was 59.5%.

As to `CCC(c1ccc(OC(C)=O)cc1)c1c(O)c2ccccc2oc1=O` (stereo not shown) [Example 72, 3-(1'-(4-Acetoxyphenyl)propyl)4-hydroxycoumarin], the inhibition at 1 µM was under 10% and the inhibition at 100 µM amounted to 92.3%. For the same compound, the inhibition at 10 µM under setting [3] came out at 18.9%.

For `O=c1oc2c(c(O)c1C(c1cccc(NS(=O)(=O)c3c(Cl)cccc3Cl)c1)C1CC1)CCCCCC2` (stereo not shown) [Example 295, 2,6-Dichloro-N-[3-[cyclopropyl(5,6,7,8,9,10-hexahydro-4-hydroxy-2'-oxo-2H-cycloocta[b]pyran-3-yl)methyl]phenyl]-benzenesulfonamide], the inhibition at 1.1 µM under setting [4] worked out at 25.9%. The inhibition at 3.3 µM under setting [5] worked out at 57%. Further, the inhibition at 10 µM under setting [1] was 87.5%. The inhibition at 30 µM under setting [2] stood at 100%.

Take `O=c1oc2ccccc2c(O)c1CC(c1ccccc1)c1ccccc1` [Example 4, 4-Hydroxy-3-(2,2-diphenylethyl)-coumarin]: the inhibition at 1 µM is under 10% and the inhibition at 100 µM was 45.3%. The inhibition at 10 µM under setting [3] stood at 12.4%.

Consider `CCCC(c1cccc(NS(=O)(=O)c2ccc(F)cc2)c1)c1c(O)c2c(oc1=O)CCCCCC2` (stereo not shown) [Example 430, Benzenesulfonamide, N-[3-[1-(5,6,7,8,9,10-hexahydro-4-hydroxy-2-oxo-2H-cycloocta[b]pyran-3-yl)butyl]phenyl]-4-fluoro-], for which the inhibition at 0.123 µM was 72.3% and the inhibition at 0.37 µM was 98.2%. Also, the inhibition at 1.1 µM under setting [6] amounted to 96.6%. Besides, the inhibition at 3.3 µM under setting [7] is 104%. Besides, the inhibition at 10 µM under setting [3] was 105%. Besides, under setting [8], the inhibition at 30 µM stood at 97.3%.

`O=c1oc2c(c(O)c1C(c1ccccc1)c1ccccc1)CCCCCC2` [Example 481, 3-(Diphenylmethyl)-5,6,7,8,9,10-hexahydro-4-hydroxy-2H-cycloocta[b]pyran-2-one]: the inhibition at 0.37 µM was determined as 118%. In addition, the inhibition at 1.1 µM under setting [6] was found to be 51.2%. The inhibition at 3.3 µM under setting [7] turned out to be 85.3%. Besides, the inhibition at 10 µM under setting [3] amounted to 98%. Besides, the inhibition at 30 µM under setting [8] was determined as 107%.

As to `Cc1cc(C)c(S(=O)(=O)Nc2cccc(C(c3c(O)c4c(oc3=O)CCCCCC4)C3CC3)c2)c(C)c1` (stereo not shown) [Example 277, N-[3-[Cyclopropyl(5,6,7,8,9,10-hexahydro-4-hydroxy-2-oxo-2H-cycloocta[b]pyran-3-yl)methyl]phenyl]-2,4,6-trimethyl-benzenesulfonamide], the inhibition at 3.3 µM under setting [5] was 37.9%. Also, the inhibition at 10 µM under setting [1] is 79.9%. In addition, under setting [2], the inhibition at 30 µM came out at 94.1%.

Turning to `CCCC(c1ccc(C)cc1)c1c(O)c2ccccc2oc1=O` (stereo not shown) [Example 18, 4-Hydroxy-3-(1-(4-methylphenyl)-butyl)-coumarin], the inhibition at 1 µM turned out to be 13.4%. The inhibition at 10 µM under setting [3] was 52.5%.

On to `CCC(c1ccc(O)cc1)c1c(O)c2ccccc2oc1=O` (stereo not shown) [Example 85, Coumarin, 4-hydroxy-3-[1-(4-hydroxyphenyl)propyl]-], for which the inhibition at 1 µM was under 10% and the inhibition at 100 µM is 100%. Moreover, the inhibition at 10 µM under setting [3] turned out to be 31.6%.

With `CCC(c1ccccc1)c1c(O)c2ccc(OC)cc2oc1=O` (stereo not shown) [Example 88, Coumarin, 4-hydroxy-7-methoxy-3-(. 1-phenylpropyl)-], the IC50 is 1520 nM and 1600 nM and 2000 nM; the inhibition at 1 µM came to 80%. The “HIV-1 Protease % Inhib” value (dose 12.500 uM) is given as 80.8%. Besides, the “HIV-1 Protease % Inhib” value (dose 100.000 uM) is 117.82% and 92% and 93.5%. Also, the inhibition at 1.56 µM (read-out: HIV-1 Protease % Inhib, dose 1.560 uM) is 49.9%. Besides, for the setting “read-out: HIV-1 Protease % Inhib, dose 1.570 uM”, the inhibition at 1.57 µM was 41.7%. Further, under setting [3], the inhibition at 10 µM amounted to 108%. Further, the inhibition at 12.5 µM (read-out: HIV-1 Protease % Inhib, dose 12.500 uM) is 89.2%.

As for `C=CCOc1ccccc1C(CC)c1c(O)c2ccccc2oc1=O` (stereo not shown) [Example 69, 3-(1'-(2-Allyloxyphenyl)propyl)-4-hydroxycoumarin], the inhibition at 1 µM is under 10% and the inhibition at 100 µM stood at 92.2%. Also, the inhibition at 10 µM under setting [3] amounted to 20.6%.

As for `CCC(c1cccc(N)c1)c1c(O)c2ccccc2oc1=O` (stereo not shown) [Example 40, Coumarin, 3-[1-(3-aminophenyl)propyl]4-hydroxy-, monohydrochloride-], the inhibition at 1 µM is under 10% and the inhibition at 100 µM was determined as 51.3%. Also, the inhibition at 10 µM under setting [3] was under 10%.

In the case of `CCNC(=S)Nc1cccc(C(c2c(O)c3c(oc2=O)CCCCCC3)C2CC2)c1` (stereo not shown) [Example 367, Thiourea, N-[3-[cyclopropyl(5,6,7,8,9,10-hexahydro-4-hydroxy-2-oxo-2H-cycloocta[b]pyran-3-yl)methyl]phenyl]-N'-ethyl-], the inhibition at 1.1 µM under setting [4] was determined as 23.7%. Under setting [5], the inhibition at 3.3 µM stood at 58.5%. Moreover, under setting [1], the inhibition at 10 µM worked out at 86.1%. Further, under setting [2], the inhibition at 30 µM amounted to 102%.

Turning to `CC(C)(C)OC(=O)N[C@H](Cc1c[nH]cn1)C(=O)Nc1cccc(C(c2c(O)c3c(oc2=O)CCCCCC3)C2CC2)c1` (stereo partly drawn) [Example 204, Carbamic acid, [2-[[3-[cyclopropyl(5,6,7,8,9,10-hexahydro-4-hydroxy-2-oxo-2H-cycloocta[b]pyran-3-yl)methyl]phenyl]amino]-1-(R)-(1H-imidazol-4-ylmethyl)-2-oxoethyl]-, 1,1-dimethylethyl ester], the inhibition at 0.123 µM turned out to be 49% and the inhibition at 0.37 µM worked out at 86.5%. In addition, the inhibition at 1.1 µM under setting [6] was 107%. Besides, under setting [7], the inhibition at 3.3 µM stood at 114%. Besides, the inhibition at 10 µM under setting [3] stood at 117%. Besides, the inhibition at 30 µM under setting [8] came to 116%.

As to `O=c1oc2ccccc2c(O)c1C(CCc1ccccc1)Cc1ccccc1` (stereo not shown) [Example 145, 3-(1-Benzyl-3-phenyl-propyl)4-hydroxy-chromen-2-one], the inhibition at 1 µM worked out at 37% and the inhibition at 100 µM came out at 97%. For the same compound, the inhibition at 10 µM under setting [3] came out at 81%.

As to `CCC(c1ccccc1)c1c(O)c2c(oc1=O)CCCCCC2` (stereo not shown) [Example 108, 5,6,7,8,9,10-Hexahydro-4-hydroxy-3-(1-phenylpropyl)-2H-cycloocta[b]pyran-2-one], the inhibition at 1 µM was found to be 72.6% and the inhibition at 100 µM stood at 94.2%. Besides, under setting [3], the inhibition at 10 µM amounted to 95.5%.

Regarding `CCC(c1cccc(NC(=O)c2ccccn2)c1)c1c(O)c2ccccc2oc1=O` (stereo not shown) [Example 45, Coumarin, 4-hydroxy-3-[1-[3-[[(2-pyridinyl)carbonyl]amino]phenyl]propyl]-], the inhibition at 1 µM is under 10% and the inhibition at 100 µM worked out at 90.9%. In addition, under setting [3], the inhibition at 10 µM is 28.5%.

In the case of `O=c1oc2c(c(O)c1C(c1ccccc1)C1CC1)CCCCCC2CO` (stereo not shown) [Example 173, 3-(Cyclopropylphenylmethyl)-5,6,7,8,9,10-hexahydro-4-hydroxy-10-(hydroxymethyl)-2H-cycloocta[b]pyran-2-one], the inhibition at 1.1 µM under setting [4] was 15%. Besides, the inhibition at 3.3 µM under setting [5] worked out at 36.5%. Also, under setting [1], the inhibition at 10 µM was 76.7%. In addition, under setting [2], the inhibition at 30 µM is 97.2%.

Consider `O=c1oc2c(c(O)c1C(c1cccc(NS(=O)(=O)c3cccc4ccccc34)c1)C1CC1)CCCCCC2` (stereo not shown) [Example 270, N-[3-[Cyclopropyl(5,6,7,8,9,10-hexahydro4-hydroxy-2-oxo-2H-cycloocta[b]pyran-3-yl)methyl]phenyl]-1-naphthalenesulfonamide], for which the inhibition at 0.123 µM is 61.7% and the inhibition at 0.37 µM came out at 93.1%. Also, under setting [6], the inhibition at 1.1 µM was found to be 107%. The inhibition at 3.3 µM under setting [7] is 111%. In addition, the inhibition at 10 µM under setting [3] is 116%. Further, the inhibition at 30 µM under setting [8] worked out at 115%.

In the case of `CCC(c1cccc(NC(=O)CCCNC(=O)OC(C)(C)C)c1)c1c(O)c2ccccc2oc1=O` (stereo not shown) [Example 50, Coumarin, 4-hydroxy-3-[1-[3-[[4-[(1,1-dimethylethoxycarbonyl)amino]-1-oxobutyl]amino]phenyl]propyl]-], the IC50 was determined as 2300 nM, the inhibition at 1 µM worked out at 33.5% and the inhibition at 100 µM was 95.5%. Also, the inhibition at 10 µM under setting [3] is 80.3%.

`CCC(c1ccccc1)c1c(O)c2cc(F)ccc2oc1=O` (stereo not shown) [Example 87, Coumarin, 6-fluoro-4-hydroxy-3-(1-phenylpropyl)-]: the inhibition at 1 µM is under 10% and the inhibition at 100 µM came to 79%. Also, under setting [3], the inhibition at 10 µM is 20.6%.
